Counter-ions that a name gives are not always drawn. Like-named read-outs stand apart in the source and are kept apart here.
What was measured:
[1] = target: T1, YFP-HA-βlac-DAT (Homo sapiens, UniProt Q01959); assay: β-lactamase (βlac) surface expression assay; type: cell-based; conditions: assumed effective EMax
Method: The βlac surface expression assay was performed by following the method outlined in [Lam et al. (2013)] and [Beerepoot et al. (2015], [2016)]. The assay substrate nitrocefin (BD biosciences) was dissolved in dimethyl sulfoxide (DMSO) at a concentration of 10 mM and frozen at −80°C. Immediately before use, it was thawed and diluted to a final concentration of 100 μM in phosphate buffered saline (PBS). Cells (1 × 10^5/well) were seeded into a poly-D-lysine-coated 48-well plate and incubated for 24 h, prior to drug treatment. Drugs were added to individual wells at varying concentrations and incubated for 16 h. Subsequently, the media was aspirated, and the cells were washed twice with PBS. After removal of the final PBS wash, 200 μL of the nitrocefin solution was added to each well and the absorbance was immediately read. The EPOCH microplate spectrophotometer (BioTek) was used to measure absorbance (486 nm) for each well every minute for 30 min. The rate of reaction (slope of the curve) was used as the readout for the assay ([Beerepoot et al., 2015]). To determine suitable concentration ranges for each drug, they were dissolved in PBS or DMSO at the highest concentration possible. From here, the solutions were serial diluted 1/10 to yield 8 different concentrations. βLAC cells were then treated with the varying drug concentrations and cell viability was recorded using light microscopy. For additional measure, nitrocefin was added and the absorbance was read. For certain cases, Trypan Blue was used to quantitatively differentiate increased cell death from reduced cell division. […] Five or six doses were generally used in subsequent dosing experiments, starting at the highest non-toxic concentration.
Data analysis was performed using GraphPad Prism (GraphPad Software, La Jolla, CA). Linear regression analysis was performed on βLAC time points to determine the slope, thus the rate of reaction, for comparison. Furthermore, the slope was also used to determine the degree of dopamine uptake in the dopamine uptake assays. Non-linear regression, fitting to the log(agonist) vs. response and log(inhibitor) vs. response model curve, was used to determine dose-response relationships of surface expression and uptake assays, respectively. One-way ANOVA with Dunnett’s post hoc-test was used for the β-lactamase assay and one-way ANOVA with Bonferroni correction was used for western blot analysis.
Among these were RTI-1, RTI-2, RTI-5, RTI-6, RTI-11, RTI-20, and PAL-1007. […] The EMax values of all the analyzed drugs are included in Figure 1.
The pharmacological chaperone ability of the 15 ibogaine and tryptamine analogs, shown in Figure 3, were measured using the βlac surface expression assay. HEK cells expressing YFP-HA-βlac-DAT were incubated overnight with these compounds at concentrations varying by log and half-log dilutions, starting at 100 μM final concentration. […] Furthermore, it was important to determine whether the β-carboline analogs could also elicit a chaperone effect because they are not classified as DAT ligands ([Cao et al., 2007]). […] Removing the nitrogen from the ring reduced efficacy as observed with frovatriptan (103 ± 1.4%). […] Evodiamine (54 ± 1.7%) had no chaperone ability and caused a substantial reduction in the surface expression of DAT. Dose-response curves were generated to assess the pharmacological chaperone potencies of select compounds (Figure 4).

[2] = target: T2, WT DAT (YFP-HA-DAT) (Homo sapiens, UniProt Q01959); assay: Western blot of mature WT DAT protein levels; type: cell-based; conditions: overnight 100 μM
T2 construct: expressed in transfected cells; host or cells: HEK293
Method: (§1) Cells (1 × 10^6 cells/well) were seeded onto a 6-well plate and incubated for 24 h. Cells were then treated with drugs and incubated for 16 h. After the incubation period, cells were lysed in RIPA buffer supplemented with protease inhibitors (working concentrations: pepstatin A, 5 μg/mL; leupeptin, 10 μg/mL; aprotinin, 1.5 μg/mL; benzamidine, 0.1 μg/mL; PMSF, 0.1 mM) on ice. At 4°C, cell lysates were gently shaken for 15 min followed by centrifugation at 15,000 rpm for 15 min to pellet debris. The Pierce BCA protein assay kit (Thermo Fisher Scientific, Canada) was used to determine the protein concentration of the supernatant. To reach a concentration of 40 μg of protein per 20 μL, samples were diluted in fresh RIPA buffer with 12.5% Laemmli sample buffer and 2.5% β-Mercaptoethanol prior to being heated to 55°C. The protein was then loaded on a 7.5 or 10% SDS-PAGE gel and run at 100 V for approximately an hour or until the dye front reached the bottom of the gel. Next, protein was transferred to a PVDF membrane at 22 V for 16 h or 100 V for 1 h. Blots were blocked with LI-COR blocking buffer for 1 h and incubated for 1 h at room temperature with rabbit anti-GFP (1:1,000 dilution; Life Technologies, cat#A11122). After washing three times with TBST, blots were incubated with goat anti-rabbit IRDye-680RD secondary antibody (1:15,000; LI-COR, cat#926-68071). As a loading control, blots were incubated with mouse anti-GAPDH (1:5,000, Sigma-Aldrich, Canada, cat#G8795) prior to secondary antibody goat anti-mouse IRDye-800GR (1:5,000 dilution, Rockland, Limerick, PA, cat#610-132-007). All antibodies were diluted in LI-COR blocking buffer. Additionally, REVERT total protein staining (LI-COR, Lincoln, NE) was used as a loading control. […] Mature, fully glycosylated DAT (mDAT = 110 kDa) and immature, ER-resident DAT (iDAT = 75 kDa) were visualized using the Odyssey Imaging System (LI-COR, Lincoln, NE) and Image Studio Version 5.2 software (Supplementary Figure 1).
(§2) We next assessed whether drugs that increase DAT surface expression also increase total protein levels of DAT. Cells expressing YFP-HA-DAT were incubated with select test compounds and DAT protein levels were examined by western blot. The effects of the compounds were assessed on WT DAT and K590A DAT. The K590A mutant is a well-characterized ER-retained, trafficking-deficient DAT mutant ([Miranda et al., 2004]) that can be rescued by pharmacological chaperones ([Beerepoot et al., 2016]).
(§3) FIGURE 5 Effect of noribogaine, tetrahydroharmine, PAL-594, bicifadine, and RTI-20 on WT and K590A DAT expression. […] (B) Quantification of WT mDAT protein levels. […] (D) Quantification of K590A mDAT protein levels. […]

[3] = target: T3, K590A DAT (Homo sapiens, UniProt Q01959, K590A); assay: Western blot of mature K590A DAT protein levels; type: cell-based; conditions: overnight treatment
T3 construct: expressed in transfected cells; host or cells: HEK293
Method: as §1, §2, §3

[4] = target: T1, YFP-HA-βlac-DAT; design: method as in Beerepoot et al., 2016; conditions: previous experiments; ref Beerepoot et al., 2016; cited from earlier work
[5] = target: T4, DAT (Homo sapiens, UniProt Q01959); conditions: read-out: Ki, DAT binding; ref Carroll et al., 2009; cited from earlier work
T4 construct: expressed in transfected cells

[6] = target: T4, DAT; conditions: read-out: IC50, dopamine uptake inhibition; ref Carroll et al., 2009; cited from earlier work
[7] = target: T4, DAT; assay: Dopamine uptake inhibition dose response of hit compounds (Figure 6); type: cell-based; conditions: doses 1 nM to 100 μM, normalized to vehicle
Method: Dopamine uptake inhibition was conducted using the Neurotransmitter Transporter Uptake Assay Kit (Molecular Devices, prod#R8173). Cells (1 × 10^5/well) were seeded into 96-well plates and incubated for 24 h. The cells were subjected to overnight drug treatment. The following day, wells were washed and incubated for 30 min with a mixture of 1X Hank’s Balanced Salt Solution (HBSS) and 0.1% Bovine Serum Albumin (BSA) Buffer. Dopamine uptake inhibitors were added during the incubation period. Following the incubation, the fluorescent dye was added, and the plate was immediately transferred to the bottom-read fluorescence microplate reader (Spectramax M3, Molecular Devices) for kinetic read-mode. The assay reads the amount of fluorescent activity which increases as fluorescent dye molecules are transported into the cells by the DAT. The read-out for this assay is the slope which equals the fluorescent measurements/time, ultimately denoting the uptake rate.
Data analysis was performed using GraphPad Prism (GraphPad Software, La Jolla, CA). Linear regression analysis was performed on βLAC time points to determine the slope, thus the rate of reaction, for comparison. Furthermore, the slope was also used to determine the degree of dopamine uptake in the dopamine uptake assays. […]

[8] = HEK293, read-out: EMax (%), WT DAT surface expression, HEK cells expressing YFP-HA-βlac-DAT, overnight (16 h) incubation, up to 100 μM, normalized to vehicle
[9] = HEK293, HEK cells expressing YFP-HA-βlac-DAT, overnight (16 h) incubation, up to 100 μM, normalized to vehicle, read-out: EMax (%), WT DAT surface expression

T4 sequence (Q01959 whole entry): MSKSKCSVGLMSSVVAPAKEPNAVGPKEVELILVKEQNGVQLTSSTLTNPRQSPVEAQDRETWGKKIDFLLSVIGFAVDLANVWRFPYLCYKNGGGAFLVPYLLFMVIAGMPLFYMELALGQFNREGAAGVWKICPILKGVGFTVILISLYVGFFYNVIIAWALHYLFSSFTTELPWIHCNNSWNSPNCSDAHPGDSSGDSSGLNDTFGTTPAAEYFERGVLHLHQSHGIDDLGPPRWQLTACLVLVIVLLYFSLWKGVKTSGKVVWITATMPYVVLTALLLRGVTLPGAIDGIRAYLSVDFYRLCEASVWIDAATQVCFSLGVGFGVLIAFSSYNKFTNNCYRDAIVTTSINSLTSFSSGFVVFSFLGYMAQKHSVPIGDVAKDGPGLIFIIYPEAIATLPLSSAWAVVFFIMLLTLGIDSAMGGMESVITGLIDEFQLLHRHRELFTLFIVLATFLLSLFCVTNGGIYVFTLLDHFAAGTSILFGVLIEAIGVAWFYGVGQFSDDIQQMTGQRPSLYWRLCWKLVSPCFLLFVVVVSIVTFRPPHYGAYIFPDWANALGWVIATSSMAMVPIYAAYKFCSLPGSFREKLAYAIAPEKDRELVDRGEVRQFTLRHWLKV
T1 sequence (Q01959 1-171 limits assumed): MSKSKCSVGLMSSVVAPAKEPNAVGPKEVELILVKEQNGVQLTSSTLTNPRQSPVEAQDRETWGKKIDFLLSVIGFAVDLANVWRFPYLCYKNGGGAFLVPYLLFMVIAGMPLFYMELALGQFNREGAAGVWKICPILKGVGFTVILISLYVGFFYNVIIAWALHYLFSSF
T1 sequence (Q01959 237-620 limits assumed): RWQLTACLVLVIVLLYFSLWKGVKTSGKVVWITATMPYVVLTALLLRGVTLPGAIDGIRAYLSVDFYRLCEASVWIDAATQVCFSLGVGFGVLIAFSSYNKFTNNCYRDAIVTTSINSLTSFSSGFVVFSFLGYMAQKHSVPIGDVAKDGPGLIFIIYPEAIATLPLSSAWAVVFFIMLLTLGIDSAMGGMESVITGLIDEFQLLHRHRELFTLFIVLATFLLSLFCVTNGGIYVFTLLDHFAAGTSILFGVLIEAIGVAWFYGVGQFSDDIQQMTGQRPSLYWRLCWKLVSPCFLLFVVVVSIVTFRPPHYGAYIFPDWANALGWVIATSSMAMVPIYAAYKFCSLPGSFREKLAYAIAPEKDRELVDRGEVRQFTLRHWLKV
T3 sequence (Q01959 whole entry K590A): as the sequence (Q01959 whole entry) above, with K590A counted along it
T2 sequence (Q01959 whole entry): as the sequence (Q01959 whole entry) above

Row | Compound | Emax [1, 8] [%] | mature WT DAT (mDAT) protein levels [2] | K590A DAT (mDAT) protein levels [3] | previously reported increase of WT DAT surface expression (EMax) [4] [%] | Emax [1, 9] [%] | other results
1 | Cc1ccc(C23CNCC2C3)cc1 (stereo not drawn) [Bicifadine, bicifadine] | 149 ± 15 | significantly increase | statistically significant effect | – | – | –
2 | CC(NC(C)(C)C)C(=O)c1cccc(Cl)c1 (stereo not drawn) [Bupropion, Bupropion hydrochloride, reference compound] | 144 ± 7.7 | – | – | 137 | – | –
3 | ibogaine [reference compound] | – | – | – | 187 | – | EMax (%), WT DAT surface expression ([1]; HEK cells expressing YFP-HA-βlac-DAT, overnight (16 h) incubation, up to 100 μM, normalized to vehicle): 222 ± 7.9%
4 | CC1NCCOC1c1cccc(Cl)c1 (stereo not drawn) [PAL-594] | – | significantly increase | statistically significant effect | – | 166 ± 8.7 | –
5 | Cc1ccc(C(=O)C(C)NC(C)(C)C)cc1 (stereo not drawn) [RTI-5] | – | – | – | – | 140 ± 5.5 | Ki [5]: > 10 µM; IC50 [6]: 6.84 µM
6 | CCCC(NC(C)(C)C)C(=O)c1cccc(Cl)c1 (stereo not drawn) [RTI-12] | – | – | – | – | 113 ± 6.3 | maximal dopamine uptake inhibition [7]: 96%

— article PMC9124866, “Structure-Activity Relationships of Dopamine Transporter Pharmacological Chaperones” (Frontiers in Cellular Neuroscience, 2022)
